Results as given in ChEMBL document CHEMBL2440076, “New triarylpyrazoles as broad-spectrum anticancer agents: design, synthesis, and biological evaluation” (Eur J Med Chem, 2013).

Key:
SN12C = assay: Growth inhibition of human SN12C cells assessed as cell growth at 10 uM after 48 hrs by sulforhodamine B assay; type: functional; conditions: read-out: Activity
SK-MEL-28 [1] = assay: Growth inhibition of human SK-MEL-28 cells after 48 hrs by sulforhodamine B assay; type: functional; conditions: SK-MEL-28, 48 h
A498 [2] = assay: Growth inhibition of human A498 cells assessed as cell growth at 10 uM after 48 hrs by sulforhodamine B assay; type: functional; conditions: A498, 48 h, read-out: Activity
SW-620 [3] = assay: Growth inhibition of human SW620 cells after 48 hrs by sulforhodamine B assay; type: functional; conditions: SW-620, 48 h
BT-549 [4] = assay: Growth inhibition of human BT549 cells assessed as cell growth at 10 uM after 48 hrs by sulforhodamine B assay; type: functional; conditions: BT-549, 48 h, read-out: Activity
NCI-H226 = assay: Growth inhibition of human NCI-H226 cells assessed as cell growth at 10 uM after 48 hrs by sulforhodamine B assay; type: functional; conditions: NCI-H226, 48 h, read-out: Activity
SF-295 = assay: Growth inhibition of human SF295 cells after 48 hrs by sulforhodamine B assay; type: functional, cell-based; conditions: SF-295, 48 h
ACHN [5] = assay: Growth inhibition of human ACHN cells after 48 hrs by sulforhodamine B assay; type: functional
MOLT-4 = assay: Growth inhibition of human MOLT4 cells assessed as cell growth at 10 uM after 48 hrs by sulforhodamine B assay; type: functional; conditions: MOLT-4, 48 h, read-out: Activity
SF-539 [6] = assay: Growth inhibition of human SF539 cells after 48 hrs by sulforhodamine B assay; type: functional; conditions: SF-539, 48 h
COLO 205 = assay: Growth inhibition of human COLO205 cells after 48 hrs by sulforhodamine B assay; type: functional; conditions: COLO 205, 48 h
NCI-H522 = assay: Growth inhibition of human NCI-H522 cells after 48 hrs by sulforhodamine B assay; type: functional; conditions: NCI-H522, 48 h
CAKI-1 = assay: Growth inhibition of human CAKI-1 cells assessed as cell growth at 10 uM after 48 hrs by sulforhodamine B assay; type: functional; conditions: CAKI-1, 48 h, read-out: Activity
SF-539 [7] = assay: Growth inhibition of human SF539 cells assessed as cell growth at 10 uM after 48 hrs by sulforhodamine B assay; type: functional; conditions: SF-539, 48 h, read-out: Activity
UACC-257 [8] = assay: Growth inhibition of human UACC257 cells assessed as cell growth at 10 uM after 48 hrs by sulforhodamine B assay; type: functional; conditions: UACC-257, 48 h, read-out: Activity
UACC-62 [9] = assay: Growth inhibition of human UACC62 cells assessed as cell growth at 10 uM after 48 hrs by sulforhodamine B assay; type: functional; conditions: UACC-62, 48 h, read-out: Activity
MDA-MB-435 = assay: Growth inhibition of human MDA-MB-435 cells assessed as cell growth at 10 uM after 48 hrs by sulforhodamine B assay; type: functional; conditions: MDA-MB-435, 48 h, read-out: Activity
KM12 = assay: Growth inhibition of human KM12 cells assessed as cell growth at 10 uM after 48 hrs by sulforhodamine B assay; type: functional; conditions: KM12, 48 h, read-out: Activity
[10] = Growth inhibition of human HCC2998 cells after 48 hrs by sulforhodamine B assay; type: functional; conditions: HCC 2998, 48 h
ACHN [11] = assay: Growth inhibition of human ACHN cells assessed as cell growth at 10 uM after 48 hrs by sulforhodamine B assay; type: functional; conditions: read-out: Activity
786-0 = assay: Growth inhibition of human 786-0 cells assessed as cell growth at 10 uM after 48 hrs by sulforhodamine B assay; type: functional; conditions: 786-0, 48 h, read-out: Activity
A498 [12] = assay: Growth inhibition of human A498 cells after 48 hrs by sulforhodamine B assay; type: functional, cell-based; conditions: A498, 48 h
BT-549 [13] = assay: Growth inhibition of human BT549 cells after 48 hrs by sulforhodamine B assay; type: functional; conditions: BT-549, 48 h
MCF7 = assay: Growth inhibition of human MCF7 cells assessed as cell growth at 10 uM after 48 hrs by sulforhodamine B assay; type: functional; conditions: MCF7, 48 h, read-out: Activity
RPMI-8226 = assay: Growth inhibition of human RPMI8226 cells assessed as cell growth at 10 uM after 48 hrs by sulforhodamine B assay; type: functional; conditions: RPMI-8226, 48 h, read-out: Activity
NCI-H322M = assay: Growth inhibition of human NCI-H322M cells assessed as cell growth at 10 uM after 48 hrs by sulforhodamine B assay; type: functional; conditions: read-out: Activity
UACC-257 [14] = assay: Growth inhibition of human UACC257 cells after 48 hrs by sulforhodamine B assay; type: functional; conditions: UACC-257, 48 h
RXF 393 = assay: Growth inhibition of human RXF393 cells after 48 hrs by sulforhodamine B assay; type: functional; conditions: RXF 393, 48 h
UACC-62 [15] = assay: Growth inhibition of human UACC62 cells after 48 hrs by sulforhodamine B assay; type: functional; conditions: UACC-62, 48 h
SW-620 [16] = assay: Growth inhibition of human SW620 cells assessed as cell growth at 10 uM after 48 hrs by sulforhodamine B assay; type: functional; conditions: SW-620, 48 h, read-out: Activity
IGROV-1 = assay: Growth inhibition of human IGROV1 cells after 48 hrs by sulforhodamine B assay; type: functional; conditions: IGROV-1, 48 h
HCT-116 = assay: Growth inhibition of human HCT116 cells after 48 hrs by sulforhodamine B assay; type: functional; conditions: HCT-116, 48 h
SK-MEL-28 [17] = assay: Growth inhibition of human SK-MEL-28 cells assessed as cell growth at 10 uM after 48 hrs by sulforhodamine B assay; type: functional; conditions: SK-MEL-28, 48 h, read-out: Activity
DU-145 = assay: Growth inhibition of human DU145 cells assessed as cell growth at 10 uM after 48 hrs by sulforhodamine B assay; type: functional; conditions: DU-145, 48 h, read-out: Activity
[18] = read-out: LC50 (the source's name)

COc1cc(-c2nn(-c3cccc(NC(=O)Nc4ccc(Cl)c(C(F)(F)F)c4)c3)cc2-c2ccncc2)ccc1Cl
growth at 10 µM (SN12C): 12.6%
GI50 (SK-MEL-28 [1]): 1.2 µM
LC50 (SK-MEL-28 [1]): 19.1 µM
TGI (SK-MEL-28 [1]): 5.01 µM
growth at 10 µM (A498 [2]): -6.71%
GI50 (SW-620 [3]): 1.29 µM
TGI (SW-620 [3]): 29.9 µM
CC50 (SW-620 [3]; [18]): > 32.5 µM
growth at 10 µM (BT-549 [4]): 7.16%
growth at 10 µM (NCI-H226): 12.1%
GI50 (SF-295): 0.84 µM
IC50 (SF-295): 0.84 µM
TGI (SF-295): 2.54 µM
CC50 (SF-295; [18]): 14.9 µM
GI50 (ACHN [5]): 1.1 µM
TGI (ACHN [5]): 15.6 µM
CC50 (ACHN [5]; [18]): > 32.5 µM
growth at 10 µM (MOLT-4): -2.38%
GI50 (SF-539 [6]): 1.65 µM
LC50 (concentration killing 50% of cells) (SF-539 [6]): 17.5 µM
TGI (SF-539 [6]): 6.34 µM
GI50 (COLO 205): 0.711 µM
LC50 (concentration killing 50% of cells) (COLO 205): 3.48 µM
TGI (COLO 205): 1.54 µM
GI50 (NCI-H522): 1.14 µM
LC50 (concentration killing 50% of cells) (NCI-H522): > 32.5 µM
TGI (NCI-H522): 6.06 µM
growth at 10 µM (CAKI-1): 14.7%
growth at 10 µM (SF-539 [7]): 6.56%
growth at 10 µM (UACC-257 [8]): -37.6%
growth at 10 µM (UACC-62 [9]): -43.8%
growth at 10 µM (MDA-MB-435): -52.3%
growth at 10 µM (KM12): 2.88%
GI50 [10]: 1.55 µM
TGI [10]: 7.3 µM
CC50 [10, 18]: > 32.5 µM
growth at 10 µM (ACHN [11]): 9.33%
growth at 10 µM (786-0): 15.1%
GI50 (A498 [12]): 0.837 µM
IC50 (A498 [12]): 0.84 µM
TGI (A498 [12]): 6.97 µM
CC50 (A498 [12]; [18]): > 32.5 µM
GI50 (BT-549 [13]): 2.36 µM
LC50 (50% lethal concentration) (BT-549 [13]): > 32.5 µM
TGI (BT-549 [13]): 10.2 µM
growth at 10 µM (MCF7): 0.14%
growth at 10 µM (RPMI-8226): -8.66%
growth at 10 µM (NCI-H322M): 32.3%
GI50 (UACC-257 [14]): 1.21 µM
TGI (UACC-257 [14]): 6.03 µM
CC50 (UACC-257 [14]; [18]): 29.2 µM
GI50 (RXF 393): 1.18 µM
LC50 (concentration killing 50% of cells) (RXF 393): > 32.5 µM
TGI (RXF 393): 6.29 µM
GI50 (UACC-62 [15]): 0.737 µM
LC50 (50% lethal concentration) (UACC-62 [15]): 11.6 µM
TGI (UACC-62 [15]): 2.09 µM
growth at 10 µM (SW-620 [16]): 15.4%
GI50 (IGROV-1): 1.2 µM
LC50 (concentration killing 50% of cells) (IGROV-1): > 32.5 µM
TGI (IGROV-1): 4.22 µM
GI50 (HCT-116): 1.17 µM
TGI (HCT-116): 4.56 µM
CC50 (HCT-116; [18]): 21.5 µM
growth at 10 µM (SK-MEL-28 [17]): 8.8%
growth at 10 µM (DU-145): 20.3%
